Experimental data taken from ChEMBL document CHEMBL4823295, “Design, synthesis and preliminary bioactivity evaluation of bitopic benzopyranomorpholine analogues as selective dopamine D3 receptor ligands as anti-drug addiction therapeutic agents” (Bioorg Med Chem Lett, 2021).
Activity calls are given as the source filed them. The calls are words filed in the database; no cut-off is given here.

How the values were obtained:
D(2) dopamine receptor = D(2) dopamine receptor (Homo sapiens, UniProt P14416); test: Displacement of [3H]spiperone from human D2 receptor transfected in HEK293 cell membrane measured after 50 mins by competitive radioligand binding analysis; assay type: cell membranes
D(3) dopamine receptor = D(3) dopamine receptor (Homo sapiens, UniProt P35462); test: Displacement of [3H]spiperone from human D3 receptor transfected in HEK293 cell membrane measured after 50 mins by competitive radioligand binding analysis; assay type: cell membranes
Homo sapiens = organism: Homo sapiens; test: Selectivity ratio of Ki for human D2 receptor transfected in HEK293 cell membrane to Ki for human D3 receptor transfected in HEK293 cell membrane; assay type: cell-based
Mus musculus [1] = test: Anti-addiction activity in naloxone-induced withdrawal symptoms in morphine-dependent mouse model assessed as inhibition of naloxone-induced body weight loss at 50 mg/kg, ip administered 60 mins prior to naloxone injection and measured after 2 hrs of naloxone injection; assay type: functional, organism-based; conditions: time 3.0 hrs
Mus musculus [2] = test: Anti-addiction activity in naloxone-induced withdrawal symptoms in morphine-dependent mouse model assessed as inhibition of naloxone-induced jumping response at 50 mg/kg, ip administered 60 mins prior to naloxone injection and measured for 30 mins after naloxone injection; assay type: functional, organism-based; conditions: time 90.0 min
Mus musculus [3] = test: Anti-addiction activity in naloxone-induced withdrawal symptoms in morphine-dependent mouse model assessed as reduction in diarrhea frequency at 50 mg/kg, ip administered 60 mins prior to naloxone injection and measured for 30 mins after naloxone injection; assay type: functional, organism-based; conditions: time 90.0 min
[4] = Toxicity in naloxone-induced withdrawal symptoms in morphine-dependent mouse model assessed as mortality at 50 mg/kg, ip administered 60 mins prior to naloxone injection; assay type: organism-based; conditions: in vivo, 1 h
[5] = Toxicity in naloxone-induced withdrawal symptoms in morphine-dependent mouse model assessed as convulsions at 50 mg/kg, ip administered 60 mins prior to naloxone injection; assay type: organism-based; conditions: in vivo, 1 h
[6] = Toxicity in naloxone-induced withdrawal symptoms in morphine-dependent mouse model assessed as slow crawling at 50 mg/kg, ip administered 60 mins prior to naloxone injection; assay type: organism-based; conditions: in vivo, 1 h
[7] = Toxicity in naloxone-induced withdrawal symptoms in morphine-dependent mouse model assessed as inability to bounce at 50 mg/kg, ip administered 60 mins prior to naloxone injection; assay type: organism-based; conditions: in vivo, 1 h
Mus musculus [8] = test: Anti-addiction activity in naloxone-induced withdrawal symptoms in morphine-dependent mouse model assessed as reduction in amount of diarrhea at 50 mg/kg, ip administered 60 mins prior to naloxone injection and measured for 30 mins after naloxone injection; assay type: functional, organism-based; conditions: time 90.0 min

D(2) dopamine receptor, sequence (P14416 whole entry): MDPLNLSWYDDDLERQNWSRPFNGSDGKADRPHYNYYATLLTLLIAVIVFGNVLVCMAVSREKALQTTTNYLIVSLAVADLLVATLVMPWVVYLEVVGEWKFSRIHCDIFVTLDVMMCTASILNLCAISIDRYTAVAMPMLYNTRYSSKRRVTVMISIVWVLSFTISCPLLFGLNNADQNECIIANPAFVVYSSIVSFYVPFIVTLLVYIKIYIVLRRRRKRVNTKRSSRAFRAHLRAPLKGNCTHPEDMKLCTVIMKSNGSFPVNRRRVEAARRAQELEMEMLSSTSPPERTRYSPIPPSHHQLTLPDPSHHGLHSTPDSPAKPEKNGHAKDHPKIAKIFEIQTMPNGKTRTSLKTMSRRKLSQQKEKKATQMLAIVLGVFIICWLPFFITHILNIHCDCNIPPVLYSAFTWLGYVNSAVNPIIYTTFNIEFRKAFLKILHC
D(3) dopamine receptor, sequence (P35462 whole entry): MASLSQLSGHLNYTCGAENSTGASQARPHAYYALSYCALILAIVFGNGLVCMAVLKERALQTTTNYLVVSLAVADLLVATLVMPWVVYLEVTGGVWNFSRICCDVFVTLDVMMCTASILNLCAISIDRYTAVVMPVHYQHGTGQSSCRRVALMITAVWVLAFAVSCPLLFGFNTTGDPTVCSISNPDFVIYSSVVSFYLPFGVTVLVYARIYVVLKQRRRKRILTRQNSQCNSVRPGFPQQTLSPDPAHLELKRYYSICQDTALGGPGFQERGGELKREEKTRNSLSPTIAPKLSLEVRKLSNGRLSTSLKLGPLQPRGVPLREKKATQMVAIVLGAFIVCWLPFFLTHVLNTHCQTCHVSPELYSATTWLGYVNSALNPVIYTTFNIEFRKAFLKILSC

SMILES	Ki (D(2) dopamine receptor)	Ki (D(3) dopamine receptor)	Ratio Ki (Homo sapiens)	Activity (Mus musculus [1])	Activity (Mus musculus [2])	Activity (Mus musculus [3])	Activity [4]	Activity [5]	Activity [6]	Activity [7]	Activity (Mus musculus [8])
CCCN1CCO[C@@H]2c3cc(O)ccc3OC[C@H]21	43 nM	1.82 nM	23	–	–	–	–	–	–	–	–
O=C(NCCCCN1CCO[C@@H]2c3ccccc3OC[C@H]21)c1ccc(Br)cc1 (racemic)	897 nM	13.5 nM	66	inactive	–	–	–	–	–	–	–
O=C(NCCCCN1CCO[C@@H]2c3ccccc3OC[C@H]21)c1ccccc1 (racemic)	776 nM	72 nM	11	Active	Active	–	–	–	–	–	–
COc1ccc2c(c1)[C@H]1OCCN(CCCCNC(=O)c3ccccc3)[C@@H]1CO2 (racemic)	568 nM	13.8 nM	41	Active	–	Active	–	–	–	–	–
O=C(NCCCCN1CCO[C@@H]2c3ccccc3OC[C@H]21)c1ccco1 (racemic)	853 nM	11.7 nM	73	Active	–	–	Toxic	Toxic	–	–	–
COc1ccccc1C(=O)NCCCCN1CCO[C@@H]2c3ccccc3OC[C@H]21 (racemic)	863 nM	12.9 nM	67	–	–	–	–	–	–	–	–
COc1ccc2c(c1)[C@H]1OCCN(CCCCNC(=O)c3cccs3)[C@@H]1CO2 (racemic)	803 nM	6.58 nM	122	–	–	–	–	Toxic	Toxic	Toxic	–
COc1ccc2c(c1)[C@H]1OCCN(CCCCNC(=O)c3ccc(Br)cc3)[C@@H]1CO2 (racemic)	958 nM	8.6 nM	111	Active	–	–	–	–	–	–	–
COc1ccc2c(c1)[C@H]1OCCN(CCCCNC(=O)c3cccc(Cl)c3)[C@@H]1CO2 (racemic)	785 nM	26.6 nM	30	inactive	Active	–	–	–	–	–	–
O=C(NCCCCN1CCO[C@@H]2c3ccccc3OC[C@H]21)c1ccc(-c2ccccc2)cc1 (racemic)	1020 nM	43.8 nM	23	Active	Active	–	–	–	–	–	–
COc1ccc2c(c1)[C@H]1OCCN(CCCCNC(=O)c3cc4ccccc4[nH]3)[C@@H]1CO2 (racemic)	732 nM	0.97 nM	755	Active	–	–	–	–	–	–	Active
O=C(NCCCCN1CCO[C@@H]2c3ccccc3OC[C@H]21)c1cccs1 (racemic)	417 nM	18.5 nM	23	Active	–	Active	–	–	–	–	–
COc1ccc2c(c1)[C@H]1OCCN(CCCCNC(=O)c3cc(OC)c(OC)c(OC)c3)[C@@H]1CO2 (racemic)	962 nM	1.23 nM	782	–	–	–	–	Toxic	Toxic	Toxic	–
O=C(NCCCCN1CCO[C@@H]2c3ccccc3OC[C@@H]21)c1ccc(Cl)cc1 (racemic)	–	> 1000 nM	–	Active	–	Active	–	–	–	–	–
COc1ccc2c(c1)[C@H]1OCCN(CCCCNC(=O)c3ccc(Cl)cc3)[C@@H]1CO2 (racemic)	967 nM	12.9 nM	75	–	–	–	Toxic	–	–	–	–
COc1ccc2c(c1)[C@H]1OCCN(CCCCNC(=O)C3CCCCC3)[C@@H]1CO2 (racemic)	688 nM	33.6 nM	21	Active	Active	–	–	–	–	–	Active
COc1ccc(C(=O)NCCCCN2CCO[C@@H]3c4ccccc4OC[C@H]32)cc1 (racemic)	568 nM	7.5 nM	76	Active	Active	Active	–	–	–	–	–

SMILES	Ki (D(2) dopamine receptor)	Ki (D(3) dopamine receptor)	Ratio Ki (Homo sapiens)	Activity (Mus musculus [1])	Activity (Mus musculus [2])	Activity (Mus musculus [3])	Activity [4]	Activity [5]	Activity [6]	Activity [7]	Activity (Mus musculus [8])
O=C(NCCCCN1CCO[C@@H]2c3ccccc3OC[C@H]21)c1cccc2ccccc12 (racemic)	563 nM	15.8 nM	36	Active	Active	–	–	–	–	–	–
COc1ccc2c(c1)[C@H]1OCCN(CCCCNC(=O)c3cccnc3)[C@@H]1CO2 (racemic)	744 nM	9.16 nM	81	–	–	–	–	Toxic	Toxic	Toxic	–
COc1cc(C(=O)NCCCCN2CCO[C@@H]3c4ccccc4OC[C@H]32)cc(OC)c1OC (racemic)	708 nM	6.8 nM	104	inactive	–	–	–	–	–	–	–
COc1ccc2c(c1)[C@H]1OCCN(CCCCNC(=O)c3ccc(-c4ccccc4)cc3)[C@@H]1CO2 (racemic)	1060 nM	18.4 nM	58	Active	–	–	–	–	–	–	–
COc1ccc(C(=O)NCCCCN2CCO[C@@H]3c4cc(OC)ccc4OC[C@H]32)cc1 (racemic)	697 nM	1.08 nM	645	Active	Active	–	–	–	–	–	Active
O=C(NCCCCN1CCO[C@@H]2c3ccccc3OC[C@@H]21)c1ccc(-c2ccccc2)cc1 (racemic)	–	> 1000 nM	–	inactive	–	–	–	–	–	–	–
COc1ccc2c(c1)[C@H]1OCCN(CCCCNC(=O)c3ccc([N+](=O)[O-])cc3)[C@@H]1CO2 (racemic)	589 nM	13.9 nM	42	Active	Active	–	–	–	–	–	–
COc1ccc2c(c1)[C@H]1OCCN(CCCCNC(=O)c3ccc4ccccc4c3)[C@@H]1CO2 (racemic)	642 nM	19.9 nM	32	Active	–	–	–	–	–	–	–
O=C(NCCCCN1CCO[C@@H]2c3ccccc3OC[C@H]21)c1ccc([N+](=O)[O-])cc1 (racemic)	962 nM	33.9 nM	28	Active	Active	Active	–	–	–	–	–
O=C(NCCCCN1CCO[C@@H]2c3ccccc3OC[C@H]21)C1CCCCC1 (racemic)	728 nM	63.8 nM	11	Active	Active	–	–	–	–	–	–
O=C(NCCCCN1CCO[C@@H]2c3ccccc3OC[C@H]21)c1cc2ccccc2[nH]1 (racemic)	785 nM	10.5 nM	75	Active	Active	–	–	–	–	–	–
COc1ccc2c(c1)[C@H]1OCCN(CCCCNC(=O)c3ccco3)[C@@H]1CO2 (racemic)	923 nM	5.2 nM	177	inactive	Active	–	–	–	–	–	–
O=C(NCCCCN1CCO[C@@H]2c3ccccc3OC[C@@H]21)c1cccs1 (racemic)	–	> 1000 nM	–	inactive	–	–	–	–	–	–	–
COc1ccc2c(c1)[C@H]1OCCN(CCCCNC(=O)c3cccc4ccccc34)[C@@H]1CO2 (racemic)	861 nM	19.8 nM	43	Active	–	–	–	–	–	–	Active
O=C(NCCCCN1CCO[C@@H]2c3ccccc3OC[C@H]21)c1ccc2ccccc2c1 (racemic)	723 nM	13.7 nM	53	Active	–	–	–	–	–	–	Active
O=C(NCCCCN1CCO[C@@H]2c3ccccc3OC[C@H]21)c1cccc(Cl)c1 (racemic)	663 nM	23.6 nM	28	Active	–	Active	–	–	–	–	–
O=C(NCCCCN1CCO[C@@H]2c3ccccc3OC[C@H]21)c1ccc(Cl)cc1 (racemic)	473 nM	17.8 nM	27	Active	–	–	–	–	–	–	Active
